“And” between values parts separate entries of the source, which are not always exact repeats. Equal values may be shown once. Where a name gives a salt, the structure may show the parent alone.
Test system: norepinephrin release in the rat prefrontal cortex
Experiment: Microdialysis: norepinephrine release in prefrontal cortex after I.P. administration
Format: in vivo
Details: for NOREPINEPHRIN in dialysate, individual animals / NOREPINEPHRIN in dialysate, MEAN: SON-117 0.1 mg/kg I.P.; for NOREPINEPHRIN in dialysate, individual animals: hydrochloride, 0.1 mg/kg; for NOREPINEPHRIN (% of respective basal) MEAN / NE concentrations in prefrontal cortex, significant slight increase: SON-117 0.3 mg/kg I.P.; for NOREPINEPHRIN (% of respective basal) MEAN: n = 8
Protocol: The aim of the study was to evaluate, using microdialysis, the effects of an intraperitoneal (I.P.) administration in rats of three different doses of SON-117 on dopamine and its metabolites, serotonin and its metabolite (5-HIAA), and norepinephrine levels in prefrontal cortex.
Thirty-two adult male Wistar rats were used for the whole study (4 groups of eight animals planned for the study, Table 1).
Surgery was performed on rats weighing about 300 g at the beginning of the experiments. Rats were anaesthetized with Ketamine (50 mg/kg) & Xylazine (15 mg/kg) by intramuscular administration. The animals were placed in a stereotaxic apparatus in the flat-skull position at a constant setting of −3.3 mm between ear bars and the incisor bar. The animals were treated with a local anesthesic (xylocaine 1%, Astra Zeneca) and an analgesic (Temgesic, from Schering Plough, 0.05 mg/kg, s.c.). A rostrocaudal midline incision was made with a lancet to expose the dorsal skull surface. The “stereotaxic zero” was defined by the Bregma in accordance with Paxinos and Watson's atlas (1986). A hole was drilled in the skull with a drill and the meninges were pierced with a sterile needle to implant a CMA12 guide cannula which later received the dialysis probe.
Coordinates used for implanting guide cannula in prefrontal cortex from Bregma were anteroposterior 3.7 mm, mediolateral 0.8 mm, and dorsoventral −2 mm (top of the probe was at −5 mm). The guide cannula was fixed to the skull with two stainless steel screws (1.88 mm outside diameter) anchored. An application of dental cement was added. A plastic collar allowed each animal to be tethered to a Swivel assembly of the CMA 120 awake animal system. Following surgery, rats were kept in individual cages and allowed to recover for a minimum of 3-5 days before the experimentation. The rats were handled and put in plastic bowl for 10 min at least every day to habituate the animals to their new environment for the dialysis. An I.P. administration with saline was also performed every day.
Dialysis probes (CMA12/3 mm, membrane, 20 kD cut-off, Carnegie Medicine, Stockholm, Sweden), were carefully washed before inserting into the guide cannula. The wash was performed with the artificial cerebrospinal fluid (aCSF) medium (NaCl 147 mM, KCl 2.7 mM, CaCl2 1.2 mM, MgCl2 0.85 mM) at room temperature. The dialysis system was then equilibrated at 20° C. at a perfusion rate of 1 μl/min with a Carnegie pump (CMA100). All catheters (FEP tubing, internal volume of 1.2 μl/10 cm, and tubing adaptors) used for microdialysis were treated in the same conditions.
The probes duly prepared were inserted into the guide cannula and the CMA120 Swivel assembly secured to the animal using a plastic collar. Flow through the dialysis probe with aCSF was maintained at a rate of 1 μl/min during the whole experimentation. The first four fractions (corresponding to 2 hours) were discarded to avoid the effects of parenchymal disturbance and to ensure that an approximate steady-state level was reached. Fractions were then collected over a period of 8.5 h during which time the animals remained quiet. The dialysates were automatically collected with an autosampler (microfraction collector CMA 140, Carnegie Medicin) and stored at −80° C. until analysis. […] Perfusion was then maintained for 7 hours with aCSF. The dialysates (30 μl) were collected into 300 μl vials, transferred into dry ice and then kept frozen (−80° C.) until analysis. Frozen samples were shipped to a partner for analysis. At the end of the microdialysis study, a PBS with colored ink was perfused through the probe in order to visualize the dialyzed area.
Catecholamine assay: Concentrations of dopamine, DOPAC, HVA, 5-HIAA, 5-HT, and norepinephrin were determined for each sample by HPLC coupled with electrochemical detection. […]

Compound: Cc1nnc(-c2cc3c(OC[C@@H](O)CN4CCC(c5ccc(Cl)c(Cl)c5)CC4)cccc3o2)o1 [SON-117, (S)-1-(4-(3,4-dichlorophenyl)piperidino)-3-(2-(5-methyl-1,3,4-oxadiazol-2-yl)benzo(b)furan-4-yloxy)-2-propanol hydrochloride]
- NOREPINEPHRIN in dialysate, individual animals (T1 h 30-T2 h): 62.36 % of respective basal and 99.69 % of respective basal and 70.34 % of respective basal and 106.16 % of respective basal and 81.71 % of respective basal and 48.44 % of respective basal and 107.26 % of respective basal and 74.26 % of respective basal
- NOREPINEPHRIN in dialysate, MEAN (T1 h-T1 h 30): 91.81 % of respective basal
- NOREPINEPHRIN in dialysate, individual animals (T1 h-T1 h 30): 76.18 % of respective basal and 103.4 % of respective basal and 76.89 % of respective basal and 121.08 % of respective basal and 91.95 % of respective basal and 79.30 % of respective basal and 109.47 % of respective basal and 76.21 % of respective basal
- NOREPINEPHRIN in dialysate, MEAN (T2 h 30-T3 h): 79.52 % of respective basal
- NOREPINEPHRIN in dialysate, individual animals (T2 h 30-T3 h): 73.33 % of respective basal and 70.54 % of respective basal and 58.97 % of respective basal and 74.27 % of respective basal and 104.33 % of respective basal and 81.47 % of respective basal and 116.2 % of respective basal and 57.05 % of respective basal
- NOREPINEPHRIN in dialysate, MEAN (T2 h-T2 h 30): 78.83 % of respective basal
- NOREPINEPHRIN in dialysate, individual animals (T2 h-T2 h 30): 66.69 % of respective basal and 98.72 % of respective basal and 65.78 % of respective basal and 70.31 % of respective basal and 92.44 % of respective basal and 49.48 % of respective basal and 109.29 % of respective basal and 77.91 % of respective basal
- NOREPINEPHRIN in dialysate, MEAN (T3 h 30-T4 h): 86.32 % of respective basal
- NOREPINEPHRIN in dialysate, individual animals (T3 h 30-T4 h): 91.02 % of respective basal and 105.19 % of respective basal and 59.70 % of respective basal and 76.69 % of respective basal and 123.13 % of respective basal and 96.82 % of respective basal and 105.05 % of respective basal and 32.98 % of respective basal
- NOREPINEPHRIN in dialysate, MEAN (T3 h-T3 h 30): 86.82 % of respective basal
- NOREPINEPHRIN in dialysate, individual animals (T3 h-T3 h 30): 152.99 % of respective basal and 92.11 % of respective basal and 58.83 % of respective basal and 77.12 % of respective basal and 91.45 % of respective basal and 56.94 % of respective basal and 113.71 % of respective basal and 51.43 % of respective basal
- NOREPINEPHRIN in dialysate, MEAN (T4 h 30-T5 h): 109.54 % of respective basal
- NOREPINEPHRIN in dialysate, individual animals (T4 h 30-T5 h): 204.20 % of respective basal and 144.74 % of respective basal and 38.63 % of respective basal and 124.67 % of respective basal and 96.8 % of respective basal and 102.84 % of respective basal and 104.62 % of respective basal and 59.86 % of respective basal
- NOREPINEPHRIN in dialysate, MEAN (T4 h-T4 h 30): 111.29 % of respective basal
- NOREPINEPHRIN in dialysate, individual animals (T4 h-T4 h 30): 220.91 % of respective basal and 88.73 % of respective basal and 75.17 % of respective basal and 90.11 % of respective basal and 112.61 % of respective basal and 91.91 % of respective basal and 116.00 % of respective basal and 94.90 % of respective basal
- NOREPINEPHRIN in dialysate, MEAN (T5 h 30-T6 h): 93.44 % of respective basal
- NOREPINEPHRIN in dialysate, individual animals (T5 h 30-T6 h): 159.66 % of respective basal and 111.49 % of respective basal and 76.32 % of respective basal and 79.52 % of respective basal and 94.09 % of respective basal and 72.17 % of respective basal and 101.35 % of respective basal and 52.95 % of respective basal
- NOREPINEPHRIN in dialysate, MEAN (T5 h-T5 h 30): 94.69 % of respective basal
- NOREPINEPHRIN in dialysate, individual animals (T5 h-T5 h 30): 188.91 % of respective basal and 96.57 % of respective basal and 69.39 % of respective basal and 78.76 % of respective basal and 94.15 % of respective basal and 68.42 % of respective basal and 102.42 % of respective basal and 58.91 % of respective basal
- NOREPINEPHRIN in dialysate, MEAN (T6 h 30-T7 h): 117.60 % of respective basal
- NOREPINEPHRIN in dialysate, MEAN (T6 h-T6 h 30): 89.68 % of respective basal
- NOREPINEPHRIN in dialysate, individual animals (T6 h-T6 h 30): 196.16 % of respective basal and 73.01 % of respective basal and 27.50 % of respective basal and 79.85 % of respective basal and 96.77 % of respective basal and 85.56 % of respective basal
- NOREPINEPHRIN in dialysate, MEAN (T-30 min-T0 (pre-dose)): 91.33 % of respective basal
- NOREPINEPHRIN in dialysate, MEAN (T-1 h 30-T-1 h (pre-dose)): 109.41 % of respective basal
- NOREPINEPHRIN in dialysate, MEAN (T-1 h-T-30 min (pre-dose)): 99.26 % of respective basal
- levels of NE compared to the citalopram treated group (two-way ANOVA, significant) (SON-117 0.1 mg/kg vs citalopram 10 mg/kg, at 4.5 h and 7 h): higher
- NOREPINEPHRIN (% of respective basal) MEAN (T0-T30 min): 109.06 % of respective basal
- NOREPINEPHRIN (% of respective basal) MEAN (T30-T1 h): 104.15 % of respective basal
- NOREPINEPHRIN (% of respective basal) MEAN (T1 h 30-T2 h): 95.77 % of respective basal
- NOREPINEPHRIN (% of respective basal) MEAN (T1 h-T1 h 30): 100.55 % of respective basal
- NOREPINEPHRIN (% of respective basal) MEAN (T2 h 30-T3 h): 106.82 % of respective basal
- NOREPINEPHRIN (% of respective basal) MEAN (T2 h-T2 h 30): 100.26 % of respective basal
- NOREPINEPHRIN (% of respective basal) MEAN (T3 h 30-T4 h): 128.69 % of respective basal
- NOREPINEPHRIN (% of respective basal) MEAN (T3 h-T3 h 30): 116.32 % of respective basal
- NOREPINEPHRIN (% of respective basal) MEAN (T4 h 30-T5 h): 125.81 % of respective basal
- NOREPINEPHRIN (% of respective basal) MEAN (T4 h-T4 h 30): 119.37 % of respective basal
- NOREPINEPHRIN (% of respective basal) MEAN (T5 h 30-T6 h): 135.41 % of respective basal
- NOREPINEPHRIN (% of respective basal) MEAN (T5 h-T5 h 30): 124.93 % of respective basal
- NOREPINEPHRIN (% of respective basal) MEAN (T6 h 30-T7 h): 140.96 % of respective basal
- NOREPINEPHRIN (% of respective basal) MEAN (T6 h-T6 h 30): 137.68 % of respective basal
- NOREPINEPHRIN (% of respective basal) MEAN (T-30 min-T0 (before administration)): 94.72 % of respective basal
- NOREPINEPHRIN (% of respective basal) MEAN (T-1 h 30-T-1 h (before administration)): 105.37 % of respective basal
- NOREPINEPHRIN (% of respective basal) MEAN (T-1 h-T-30 min (before administration)): 99.90 % of respective basal
- NE concentrations in prefrontal cortex, significant slight increase (at 3.5 h): 117%
- NE concentrations in prefrontal cortex, significant slight increase (from 4.5 h to 7 h): 128%
- levels of NE compared to the citalopram treated group (two-way ANOVA, significant) (SON-117 0.3 mg/kg vs citalopram 10 mg/kg, at 3.5 h, 4 h, 4.5 h, 5 h, 5.5 h, 6 h and 7 h): higher
- NE dialysate levels vs mean pre-administration value (SON-117 3 mg/kg IP): no statistically significant differences
- levels of NE compared to the citalopram treated group (two-way ANOVA, significant) (SON-117 3 mg/kg vs citalopram 10 mg/kg, at 1.5 h and 3.5 h): higher
- release of NE, maximum increase (SON-117, three doses tested, 7 h after administration): 129%

— patent US20250109127A1, “METHODS OF USE OF PHENOXYPROPYLAMINE COMPOUNDS TO TREAT DEPRESSION” (Minerva Neurosciences, Inc., priority 2013, published 2025)
